Results from patent US20190038556A1, “FORMULATIONS AND CARRIER SYSTEMS INCLUDING COMPOUND INTERACTIVE DOMAINS” (University of Pittsburgh - Of The Commonwealth System of …, priority 2012, published 2019).
≈ marks a conversion by molar mass, not a printed value. Where two headings read alike, the source gives them in different places.

Tests used:
[1] = Screening of protected amino acid derivatives as solubilizers and inhibitor of crystallization for JP4-039; type: physicochemical
Experimental: In several studies, we compared a group of ε-Boc-lysine derivatives bearing various modifying groups on the α-NH2 position. […] FIG. 1 illustrates structures of various amino acid derivatives studied in solubility studies of JP4-039 in Table 3. […] In Table 3, the followings designations are used: U—Initially soluble but unstable after 5 min; V—forming vesicles; I—insoluble; and S—soluble.
1(b). Screening of protected amino acid derivatives as solubilizers and inhibitor of crystallization for JP4-039. α-acetyl-ε-Boc-lysine, α-iso-butoxycarbamoyl-ε-Boc-lysine were synthesized from α-NH2-ε-Boc-lysine (1 mmole) dissolved in 5 mL of saturated sodium bicarbonate solution by adding a 4-fold excess of acetyl anhydride or isobutyl chloroformate dissolved in 5 mL of THF over a period of 5 minutes, respectively. THF was removed from the reaction mixture, the remaining mixture was diluted with 50 mL of ethyl acetate. The organic phase was washed with 20 mL of saturated NaHCO3, saline, citric acid (0.5 M) and water sequentially. The organic phase was dried over anhydrous sodium sulfate, and the solvent was removed. The solid residues were recrystallized from ethyl acetate/hexanes mixture. These derivatives, together with a panel of commercially available amine protected derivatives of lysine, phenylalanine, and glycine were prepared as 1-100 mM solution or suspension in 0.1 M Na2HPO4 buffer. Meanwhile, 0.447 μg of JP4-039 dissolved in 5 μL of methanol was added to each well of a 96-well polystyrene plate. One hundred μL of amino acid solution/suspension were added to the methanol solution and mixed well. The physical status of the samples in each well was inspected visually for the physical appearance of brown crystals periodically over 2 h. Some samples were photographed under a microscope after 20 min.

[2] = for Physical form on hydration: 1 mg at 1 mg/ml
From the text: Additional representative studies of paclitaxel PTX loaded onto a carrier agent including only a hydrophilic segment, region or domain conjugated to a drug-interactive segment, region or domain are set forth below.

physchem = assay: physchem
From the text: The exact mechanism for the protection of ECGC against oxygen in the form of complex is unknown.

[3] = Particle size measurement by laser dynamic light scattering; type: physicochemical; settings: for Size +/− SD: agent formulated with multi-chain PEGylated micelle-forming surfactant; for Particle Sizes w/o JP4-039: empty micelles
Experimental: 1(f). Particle size measurement. […] Samples were further diluted ten times in distilled water and sizes were measured by laser dynamic light scattering using a particle sizer (Zetasizer Nano ZS instrument, available from Malvern Instruments Ltd of Worcestershire, United Kingdom). Size measurement of emulsion particles were conducted using a Coulter N4 particle sizer after a 100-fold dilution in saline.

[4] = Critical micelle concentration (Eosin Y red shift); type: physicochemical
Experimental: 1(d). Critical micelle concentration (CMC). CMC was determined based on the red shift of the maximal absorption of Eosin Y when incorporated into more hydrophobic microenvironment in the core of micelle. Eosin Y solution was added to a final concentration of 1 mM to a series of surfactant solution prepared in distilled water and incubated for 30 minute at room temperature. OD542 nm was measured and plotted against surfactant concentration from which CMC values were estimated.

[5] = PTX loading and formulation stability of PTX/PEG-Fmoc2 mixed micelles (HPLC); type: physicochemical
From the text: DLC (%)=[weight of drug used/(weight of polymer+drug used)]×100%
DLE (%)=(weight of loaded drug/weight of input drug)×100%
2(b)(iv). Preparation and biophysical characterization of PTX/PEG-Fmoc2 mixed micelles. Thin-film hydration method was utilized for preparation of PTX/PEG-Fmoc2 mixed nanomicelles. PEG-Fmoc2 and PTX in chloroform were well mixed in a glass tube at designated molar ratios. A thin film of carrier/drug mixture was generated through removal of the organic solvent by a gentle stream of nitrogen. The trace amount of solvent was further removed via vacuum for 2 h. Then the film was hydrated and suspended in DPBS by vortex to obtain a clear solution of PTX/PEG-Fmoc2 mixed nanomicelles. […]
The size distribution of PTX/PEG-Fmoc2 mixed nanomicelles was examined by dynamic light scattering (DLS) via a Malvern Zeta Nanosizer, and the morphology was observed by transmission electron microscopy (TEM) after negative staining. The CMC measurement was performed as reported before with pyrene as a fluorescence probe. To quantify PTX in the micelles, PTX was extracted by methanol, and detected by Waters Alliance 2695-2998 high-performance liquid chromatography (HPLC) system with a RP-18 column (250 mm×4.6 mm) equipped with a UV detector at 227 nm at room temperature. […] The drug loading capacity (DLC) and efficiency (DLE) were calculated as set forth above.

[6] = carrier Methoxy-PEG550-α-Fmoc-lysyl-ε-oleylamide (20 mg/ml)
[7] = aqueous with cosolvent or surfactant or cyclodextrin

With `CC(=O)N[C@@H](CCCCNC(=O)OCc1ccccc1)C(=O)O` [Ace-(Cbz)-Lys-OH] the “Solubility status of JP4-039 with amino acid derivative” value (“Solubility status” below) ([1]; molar ratio 5) was “I”, the “Solubility status” value ([1]; molar ratio 10) was “I” and the “Solubility status” value ([1]; molar ratio 20) was “I”. For the same molecule, the “Solubility status” value ([1]; molar ratio 30) was “I”, the “Solubility status” value ([1]; molar ratio 40) was “I” and the “Solubility status” value ([1]; molar ratio 50) was “S”.

In the case of `O=C(N[C@@H](Cc1ccccc1)C(=O)O)c1ccccc1` [Benz-Phe-OH], the “Solubility status” value ([1]; molar ratio 5) is reported as “I” and the “Solubility status” value ([1]; molar ratio 50) is reported as “S”.

In the case of `CC(=O)NCCCC[C@H](NC(=O)OCc1ccccc1)C(=O)O` [CBz-(Ace)-Lys-OH], the “Solubility status” value ([1]; molar ratio 5) is reported as “I”, the “Solubility status” value ([1]; molar ratio 10) is reported as “I” and the “Solubility status” value ([1]; molar ratio 20) is reported as “I”. For the same molecule, the “Solubility status” value ([1]; molar ratio 30) was “I”, the “Solubility status” value ([1]; molar ratio 40) was “I” and the “Solubility status” value ([1]; molar ratio 50) was “S”.

With `CC(C)(C)OC(=O)NCCCC[C@H](NC(=O)OCc1ccccc1)C(=O)O` [Cbz-(tBoc)-Lys-OH] the “Solubility status” value ([1]; molar ratio 5) was “I”, the “Solubility status” value ([1]; molar ratio 10) was “I” and the “Solubility status” value ([1]; molar ratio 20) was “I”. For the same molecule, the “Solubility status” value ([1]; molar ratio 30) was “I”, the “Solubility status” value ([1]; molar ratio 40) was “S” and the “Solubility status” value ([1]; molar ratio 50) was “S”.

For `O=C(O)CCNC(=O)OCc1ccccc1` [Cbz-β-Ala-OH], the “Solubility status” value ([1]; molar ratio 5) was “I”, the “Solubility status” value ([1]; molar ratio 10) was “I” and the “Solubility status” value ([1]; molar ratio 20) was “I”. For the same molecule, the “Solubility status” value ([1]; molar ratio 30) was “I”, the “Solubility status” value ([1]; molar ratio 40) was “I” and the “Solubility status” value ([1]; molar ratio 50) was “I”.

In the case of `COc1cc(/C=C/C(=O)CC(=O)/C=C/c2ccc(O)c(OC)c2)ccc1O` [Curcumin], the “Stability of suspension upon hydration” value [2] is reported as about 1 h, the “Physical form on hydration” value [2, 6] is reported as “micelle solution” and the “Physical form on hydration” value ([2]; carrier Methoxy-PEG1000-α-Fmoc-lysyl-ε-(α-Fmoc-ε-Boc lysine), 20 mg/ml) is reported as 1 mg at 1 mg/ml, viscous gel. The “Physical form on hydration” value ([2]; carrier Methoxy-PEG1000-α-Fmoc-lysyl-ε-(α-Fmoc-ε-Boc lysine), 20 mg/ml, listed as curcumin) was “suspension”.

For `O=C(NCCCC[C@H](NC(=O)OCc1ccccc1)C(=O)O)OCc1ccccc1` [Di-(Cbz)-Lys-OH], the “Solubility status” value ([1]; molar ratio 5) was “I”, the “Solubility status” value ([1]; molar ratio 10) was “I” and the “Solubility status” value ([1]; molar ratio 20) was “S”. The “Solubility status” value ([1]; molar ratio 30) was “S”, the “Solubility status” value ([1]; molar ratio 40) was “S” and the “Solubility status” value ([1]; molar ratio 50) was “S”.

For `C=CC[C@@H]1/C=C(\C)C[C@H](C)C[C@H](OC)[C@H]2O[C@@](O)(C(=O)C(=O)N3CCCC[C@H]3C(=O)O[C@H](/C(C)=C/[C@@H]3CC[C@@H](O)[C@H](OC)C3)[C@H](C)[C@@H](O)CC1=O)[C@H](C)C[C@@H]2OC` [FK506, tacrolimus], the “Drug:carrier mole ratio” value (physchem) was 1:1 to 1:1.5, the solubility (physchem; [7]) was 2500 µg/mL (≈ 3110 µM) and the “Size +/− SD” value [3] was 62.3 +/− 9 nm.

In the case of `CC(C)(C)OC(=O)NCCCC[C@H](NC(=O)OCC1c2ccccc2-c2ccccc21)C(=O)O` [Fmoc-(tBoc)-Lys-OH, α-Fmoc-ε-tBoc-lysine], the “Measured diameters of the majority of particles” value ([3]; prepared in 0.1 M KHCO3) is reported as 2-5 nm, the “Solubility status” value ([1]; molar ratio 5) is reported as “S” and the “Solubility status” value ([1]; molar ratio 10) is reported as “S”. For the same molecule, the “Solubility status” value ([1]; molar ratio 20) was “S”, the “Solubility status” value ([1]; molar ratio 30) was “S” and the “Solubility status” value ([1]; molar ratio 40) was “S”. For the same molecule, the “Solubility status” value ([1]; molar ratio 50) was “S”.

In the case of `CC(C)c1onc(-c2c(Cl)cccc2Cl)c1COc1ccc(/C=C/c2cccc(C(=O)O)c2)c(Cl)c1` [GW4064], the “Drug:carrier mole ratio” value (physchem) is reported as 2:1 to 1:1, the Soluble at (physchem) is reported as over 5 mg/mL and the solubility (physchem) is reported as 0.002 µg/mL (≈ 0.00368 µM). For the same molecule, the “Size +/− SD” value [3] was 35.4 +/− 12 nm.

With `COc1ccc2c(c1)c(CC(=O)O)c(C)n2C(=O)c1ccc(Cl)cc1` [Indomethacin] the “Physical form on hydration” value [2, 6] was “micelle solution”.

For `O=C([O-])c1c(Cl)c(Cl)c(Cl)c(Cl)c1-c1c2cc(I)c(=O)c(I)c-2oc2c(I)c([O-])c(I)cc12.[Na+].[Na+]` [Rose Bengal], the “Drug:carrier mole ratio” value (physchem) was 2.5:1 to 2:1^, the Soluble at (physchem) was over 5 mg/mL and the solubility (physchem) was “freely”. For the same molecule, the “Size +/− SD” value [3] was 101.6 +/− 7 nm.

For `CC/C(=C(\c1ccccc1)c1ccc(OCCN(C)C)cc1)c1ccccc1` [Tamoxifen], the “Stability of suspension upon hydration” value [2] was about 1 h and the “Physical form on hydration” value [2, 6] was “micelle solution”.

For `C=CC1=C(C)c2cc3[nH]c(cc4nc(cc5[nH]c(cc1n2)c(C)c5CCC(=O)O)C(CCC(=O)O)=C4C)c(C)c3C=C` [protoporphyrin IX], the “Drug:carrier mole ratio” value (physchem) was 1:6 to 1:10, the solubility (physchem) was about 1 µg/mL (≈ 1.78 µM) and the solubility (physchem; [7]) was 500 µg/mL (≈ 889 µM).

In the case of `CC(C)(C)OC(=O)N[C@@H](CCCCNC(=O)OCc1ccccc1)C(=O)O` [tBoc-(Cbz)-Lys-OH], the “Solubility status” value ([1]; molar ratio 5) is reported as “I”, the “Solubility status” value ([1]; molar ratio 10) is reported as “I” and the “Solubility status” value ([1]; molar ratio 20) is reported as “I”. For the same molecule, the “Solubility status” value ([1]; molar ratio 30) was “I”, the “Solubility status” value ([1]; molar ratio 40) was “I” and the “Solubility status” value ([1]; molar ratio 50) was “S”.

In the case of Isb-(Cbz)-Lys-OH, the “Solubility status” value ([1]; molar ratio 5) is reported as “I”, the “Solubility status” value ([1]; molar ratio 10) is reported as “S” and the “Solubility status” value ([1]; molar ratio 20) is reported as “S”. The “Solubility status” value ([1]; molar ratio 30) was “S”, the “Solubility status” value ([1]; molar ratio 40) was “S” and the “Solubility status” value ([1]; molar ratio 50) was “S”.

With “Monomethoxy PEG2,000-lysyl-(α-Fmoc-ε-oleoyl lysine)2 [lipopeptide 3]” the CMC [4] was 4.2 µM, the “Particle Sizes w/JP4-039” value ([3]; JP4-039 loaded micelles) was 94.2 +/− 1.7 nm and the “Particle Sizes w/o JP4-039” value [3] was 106.7 +/− 2.5 nm.

For “Monomethoxy PEG2,000-α-Fmoc-ε-Oleoyl Lysine [lipopeptide 1]”, the CMC [4] was 5.0 µM.

In the case of “Monomethoxy PEG5,000-lysyl-[lysyl-(α-Fmoc-ε-oleoyl lysine)2]2 [lipopeptide 4]”, the CMC [4] is reported as 3.4 µM and the “Particle Sizes w/o JP4-039” value [3] is reported as 132.1 +/− 8.5 nm.

In the case of “PEG5000-lysyl-(α-Fmoc-ε-oleic acid-lysine)2 [PEG-Fmoc-OA]”, the “Stability in solution at maximum PTX loading” value [5] is reported as “several hours” and the “PTX loading capacity (maximum)” value ([5]; w/w, stable complexes in aqueous solution) is reported as 15%.
